Where a name gives a salt, the structure may show the parent alone.
Assay: chemical stability of tenofovir DF in the dosage form (stability studies)
Type: physicochemical

CC(C)OC(=O)OCOP(=O)(CO[C@H](C)Cn1cnc2c(N)ncnc21)OCOC(=O)OC(C)C [tenofovir DF, tenofovir disoproxil fumarate]
compatibility of efavirenz formulation with tenofovir DF (attributed to the surfactant sodium lauryl sulfate in the efavirenz portion): unexpectedly incompatible | stability of tenofovir DF in preparation (increased proportion of excipients, wet granulation of the three API combination): highly unstable | stability of tenofovir DF in combination tablet (three drugs in unitary, essentially homogeneous composition manufactured by wet granulation, stability studies): highly unstable and rapidly degraded
